Like-named read-outs stand apart in the source and are kept apart here.
Molecular target: T1, Human sputum elastase (HSE) (Homo sapiens, UniProt P08246)
T1 construct: purchased Elastin Products Co., Pacific, Mo; host or cells: human sputum
T1 sequence (P08246 30-247 limits assumed): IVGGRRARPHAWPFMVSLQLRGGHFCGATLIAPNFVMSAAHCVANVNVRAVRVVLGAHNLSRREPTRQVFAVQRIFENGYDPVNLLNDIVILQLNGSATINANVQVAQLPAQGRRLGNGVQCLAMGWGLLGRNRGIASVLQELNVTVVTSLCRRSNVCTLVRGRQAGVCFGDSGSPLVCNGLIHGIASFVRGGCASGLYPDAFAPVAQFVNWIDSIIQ
Assay: In vitro elastase inhibition, hydrolysis of MeO-Suc-Ala-Ala-Pro-Val-pNA (release of pNA, 405 nm)
Format: biochemical
Details: 5 ug/mL, 0.5 mM substrate, pH 7.5, 15 min pre-incubation
Description: The method of K. Nakajima et al., Journal of Biological Chemistry, 254: 4027-4032 (1979) was adapted to a microtiter format. The in vitro assay is based upon the hydrolysis of the commercially available (Sigma Chemical Company, St. Louis, Mo.) substrate methoxy O-succinyl-L-alanyl-L-alanyl-L-prolyl-L-valine para-nitroanilide (MeO-Suc-Ala-Ala-Pro-Val-pNA) and the release of para-nitroanilide (pNA), which absorbs at 405 nm.
a. Human sputum elastase (HSE) (Elastin Products Co., Pacific, Mo.) dissolved in 1 mg/mL in 0.05M sodium chloride and frozen (50 μL aliquots) at -20° C. until used.
b. Stock solution of MeO-succinyl-L-Alanyl-L-Alanyl-Pro-Val-pNA dissolved at 15 mM in dimethylsulfoxide (DMSO) and frozen (4 mL aliquots) at -20° C. until used.
c. Assay buffer: 0.1M Tris buffer, pH 7.5 containing 0.5M sodium chloride.
Screening is performed in microtiter plates, using 0.5 mM substrate and monitored on a Microtiter Reader. Enzyme activity (+/- test compound) is determined as the rate of pNA release (linear regression analysis of slope). Inhibitory activity of the test compound is calculated relative to the uninhibited enzyme control, as follows: [formula]
A frozen aliquot of HSE is thawed and diluted with assay buffer to a stock concentration of 0.02 mg/mL (30×assay concentration). A frozen aliquot of the substrate stock solution is thawed and diluted to 0.5 mM with the assay buffer (final DMSO concentration is […]). 10 μl of the test compound stock solution (or assay buffer) and 10 μl of the HSE stock solutions are pipetted into each microtiter well, in duplicate. The plate is mixed well, and pre-incubated at room temperature for 15 minutes. A 300 μl substrate solution is then added to each well and the OD405 is followed for approximately 30 minutes.
Further, it is known to those skilled in the art that the biological activities of pharmaceutical agents may be diminished in vitro when human serum albumin (HSA) is added. This is due to the probable binding of compounds to protein. In the case of the present invention, however, the compounds of the present invention are just as active in vitro without or with 0.5% HSA and thus would be expected not to bind to plasma in an in vivo situation or in a diagnostic setting.

[1] = 0% HSA (human serum albumin), read-out: % INHIBITION (5 ug/mL), 0% HSA
[2] = 0.5% HSA (human serum albumin), read-out: % INHIBITION (5 ug/mL), 0.5% HSA

Row | Structure (SMILES) | inhibition at 5 µg/mL [1] [%] | inhibition at 5 µg/mL [2] [%]
1 | CC(C)C1N=C2CN(C3Cc4ccccc4C3)C(=O)[C@H](C(C)C)N2C1(O)C(F)(F)F (stereo partly drawn) | 86 | 84.5
2 | CC(C)C1N=C2CN(C3CCCCCCC3)C(=O)[C@H](C(C)C)N2C1(O)C(F)(F)F (stereo partly drawn) | 39.2 | 28
3 | COc1ccc(CCN2CC3=NC(C(C)C)C(O)(C(F)(F)F)N3[C@@H](C(C)C)C2=O)cc1OC (stereo partly drawn) | 47.5 | 58.6

Reference: patent publication US5166154A, “Imidazo[1,2-a]piperazines” (Boehringer Ingelheim Pharmaceuticals, Inc., priority 1991, dated 1992)
